Results taken from ChEMBL document CHEMBL3880394, “Benzazole derivatives and their use as jnk modulators” (2003).

Key:
[1] = Antiinflammatory activity in human Jurkat cells assessed as inhibition of PMA/ionomycine-induced IL2 production preincubated for 30 mins followed by PMA/ionomycine induction measured after 24 hrs by ELISA relative to control; format: functional
[2] = Neuroprotective activity against NGF, arabinosine deficiency and anti NGF antibody-mediated cell death in sympathetic neurons from new born rat superior cervical ganglia assessed as survival rate after 24 hrs by MTT assay relative to control; format: functional, Sympathetic neuron

SMILES | inhibition (INH) [1] | Survival [2]
N#CC(c1ccnc(Cl)n1)c1nc2ccccc2s1 (stereo not given) | >30% | <=80%
N#CC(c1ccnc(OCc2ccccn2)n1)c1nc2ccccc2s1 (stereo not given) | >30% | 
N#CC(c1ccnc(OCc2ccc(Cl)c(Cl)c2)n1)c1nc2ccccc2s1 (stereo not given) |  | <=80%
N#CC(c1ccnc(NCCCn2ccnc2)n1)c1nc2ccccc2s1 (stereo not given) |  | <=80%
